{
  "source": "paper PMC10460728",
  "about": "(Journal of Pharmacokinetics and Pharmacodynamics, 2023)",
  "key": {"[1]": {"design": "method as in FDA CP review", "conditions": "ref FDA CP review; cited from earlier work"}, "[2]": {"conditions": "plasma; ref FDA CP review; cited from earlier work"}, "[3]": {"biological_target": "CYP3A5 (Homo sapiens, UniProt P20815)", "sequence (P20815 whole entry)": "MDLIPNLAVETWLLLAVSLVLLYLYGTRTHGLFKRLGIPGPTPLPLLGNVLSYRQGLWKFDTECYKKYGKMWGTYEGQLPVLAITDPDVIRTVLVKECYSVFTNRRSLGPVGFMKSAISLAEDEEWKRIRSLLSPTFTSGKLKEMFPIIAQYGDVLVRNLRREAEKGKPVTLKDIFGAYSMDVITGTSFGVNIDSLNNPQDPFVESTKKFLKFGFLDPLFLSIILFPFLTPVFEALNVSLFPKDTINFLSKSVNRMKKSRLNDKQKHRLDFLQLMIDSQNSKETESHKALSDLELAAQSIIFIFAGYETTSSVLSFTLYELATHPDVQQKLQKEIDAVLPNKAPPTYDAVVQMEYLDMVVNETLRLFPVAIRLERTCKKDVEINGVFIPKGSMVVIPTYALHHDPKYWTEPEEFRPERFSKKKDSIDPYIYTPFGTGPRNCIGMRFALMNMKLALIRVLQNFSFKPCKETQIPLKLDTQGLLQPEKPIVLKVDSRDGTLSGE", "assay": "In vitro CYP3A5 inhibition (internal data)", "type": "biochemical"}, "[4]": {"assay": "clinical", "conditions": "human, plasma, po, 160 mg; for Cmax: observed, mean"}, "[5]": {"assay": "PBPK models of enzalutamide and M2 (Simcyp)", "excerpt": "Many of the physicochemical properties and plasma protein binding data were obtained internally and also referenced from FDA documents, which are available from the FDA website. […] Accordingly, the solution formulation option in the Simcyp model was used.\nThe PBPK models of CYP2C8 inhibitor (gemfibrozil), CYP3A4 substrate (midazolam), and P-gp substrate (digoxin) were used from the Simcyp software library with models that were verified for their intended purpose."}, "[6]": {"biological_target": "T1, OAT3 (Homo sapiens, UniProt Q8TCC7)", "T1 sequence (Q8TCC7 1-542)": "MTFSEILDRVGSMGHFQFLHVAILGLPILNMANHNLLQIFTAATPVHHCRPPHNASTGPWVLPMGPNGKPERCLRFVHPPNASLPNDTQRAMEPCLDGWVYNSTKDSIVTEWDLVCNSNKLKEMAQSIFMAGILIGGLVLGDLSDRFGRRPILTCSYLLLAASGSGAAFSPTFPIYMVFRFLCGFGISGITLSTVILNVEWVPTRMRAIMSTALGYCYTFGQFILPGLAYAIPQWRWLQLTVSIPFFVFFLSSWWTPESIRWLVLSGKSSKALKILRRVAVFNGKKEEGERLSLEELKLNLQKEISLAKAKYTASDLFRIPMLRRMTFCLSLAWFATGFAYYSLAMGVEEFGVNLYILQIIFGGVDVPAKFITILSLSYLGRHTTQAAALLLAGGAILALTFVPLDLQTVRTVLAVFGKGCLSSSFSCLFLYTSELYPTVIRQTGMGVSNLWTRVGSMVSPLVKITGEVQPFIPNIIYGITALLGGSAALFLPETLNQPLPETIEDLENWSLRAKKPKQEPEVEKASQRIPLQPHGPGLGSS", "assay": "In vitro OAT3 inhibition (internal data)", "type": "cell-based"}, "[7]": {"system": "CYP3A4", "conditions": "calibrated with positive control rifampicin; Simcyp input", "procedure": "(§1) Hepatocytes were cultured according to previously described methods [8]. […] Single-stranded cDNA was prepared from RNA with the RT Master Mix using the AB 7900HT Fast Real Time PCR System thermocycling program. Quantitative RT-PCR was carried out in triplicate. Relative quantification measures the change in mRNA expression in a test sample relative to that in a control sample (e.g., DMSO). This method assumes that the efficiency of the target amplification and the efficiency of the endogenous control amplification are approximately equal.\n(§2) The maximal fold induction (Indmax) and half concentration to reach Indmax (IndC50) were determined based on the following equation: Foldinduction=1+Indmax-1×Ct/IndC50+Ct where Ct is the test drug concentration."}, "[8]": {"conditions": "once-daily oral 160 mg enzalutamide for 49 days; mean"}, "[9]": {"biological_target": "CYP3A4 (Homo sapiens, UniProt P08684)", "sequence (P08684 whole entry)": "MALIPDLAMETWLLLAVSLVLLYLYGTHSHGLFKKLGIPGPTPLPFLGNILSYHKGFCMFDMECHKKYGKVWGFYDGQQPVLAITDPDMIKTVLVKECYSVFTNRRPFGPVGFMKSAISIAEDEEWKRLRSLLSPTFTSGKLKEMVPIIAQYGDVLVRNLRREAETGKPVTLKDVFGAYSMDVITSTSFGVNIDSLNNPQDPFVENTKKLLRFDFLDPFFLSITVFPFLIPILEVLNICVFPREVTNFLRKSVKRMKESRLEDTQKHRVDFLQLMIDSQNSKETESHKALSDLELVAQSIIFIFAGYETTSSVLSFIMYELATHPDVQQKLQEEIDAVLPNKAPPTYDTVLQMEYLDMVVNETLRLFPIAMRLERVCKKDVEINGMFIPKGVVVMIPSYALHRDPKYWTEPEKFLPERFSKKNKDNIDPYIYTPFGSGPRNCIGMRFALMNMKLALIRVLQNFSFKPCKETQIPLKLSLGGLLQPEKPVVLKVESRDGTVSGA", "assay": "In vitro CYP3A4 inhibition (internal data)", "type": "biochemical"}, "[10]": {"assay": "Caco-2 passive permeability", "type": "in vitro ADME", "conditions": "human, Caco-2, pH 6.5; internal data; read-out: Papp Caco-2 passive permeability (pH6.5:7.5)", "source_text": "Many of the physicochemical properties and plasma protein binding data were obtained internally and also referenced from FDA documents [9], which are available from the FDA website."}, "[11]": {"conditions": "cited from earlier work"}, "[12]": {"system": "CYP3A4", "assay": "in vitro", "conditions": "human, freshly isolated, cultured human hepatocytes", "procedure": "as §1, §2"}, "[13]": {"biological_target": "P-gp (human MDR1) (Homo sapiens, UniProt P08183)", "sequence (P08183 whole entry)": "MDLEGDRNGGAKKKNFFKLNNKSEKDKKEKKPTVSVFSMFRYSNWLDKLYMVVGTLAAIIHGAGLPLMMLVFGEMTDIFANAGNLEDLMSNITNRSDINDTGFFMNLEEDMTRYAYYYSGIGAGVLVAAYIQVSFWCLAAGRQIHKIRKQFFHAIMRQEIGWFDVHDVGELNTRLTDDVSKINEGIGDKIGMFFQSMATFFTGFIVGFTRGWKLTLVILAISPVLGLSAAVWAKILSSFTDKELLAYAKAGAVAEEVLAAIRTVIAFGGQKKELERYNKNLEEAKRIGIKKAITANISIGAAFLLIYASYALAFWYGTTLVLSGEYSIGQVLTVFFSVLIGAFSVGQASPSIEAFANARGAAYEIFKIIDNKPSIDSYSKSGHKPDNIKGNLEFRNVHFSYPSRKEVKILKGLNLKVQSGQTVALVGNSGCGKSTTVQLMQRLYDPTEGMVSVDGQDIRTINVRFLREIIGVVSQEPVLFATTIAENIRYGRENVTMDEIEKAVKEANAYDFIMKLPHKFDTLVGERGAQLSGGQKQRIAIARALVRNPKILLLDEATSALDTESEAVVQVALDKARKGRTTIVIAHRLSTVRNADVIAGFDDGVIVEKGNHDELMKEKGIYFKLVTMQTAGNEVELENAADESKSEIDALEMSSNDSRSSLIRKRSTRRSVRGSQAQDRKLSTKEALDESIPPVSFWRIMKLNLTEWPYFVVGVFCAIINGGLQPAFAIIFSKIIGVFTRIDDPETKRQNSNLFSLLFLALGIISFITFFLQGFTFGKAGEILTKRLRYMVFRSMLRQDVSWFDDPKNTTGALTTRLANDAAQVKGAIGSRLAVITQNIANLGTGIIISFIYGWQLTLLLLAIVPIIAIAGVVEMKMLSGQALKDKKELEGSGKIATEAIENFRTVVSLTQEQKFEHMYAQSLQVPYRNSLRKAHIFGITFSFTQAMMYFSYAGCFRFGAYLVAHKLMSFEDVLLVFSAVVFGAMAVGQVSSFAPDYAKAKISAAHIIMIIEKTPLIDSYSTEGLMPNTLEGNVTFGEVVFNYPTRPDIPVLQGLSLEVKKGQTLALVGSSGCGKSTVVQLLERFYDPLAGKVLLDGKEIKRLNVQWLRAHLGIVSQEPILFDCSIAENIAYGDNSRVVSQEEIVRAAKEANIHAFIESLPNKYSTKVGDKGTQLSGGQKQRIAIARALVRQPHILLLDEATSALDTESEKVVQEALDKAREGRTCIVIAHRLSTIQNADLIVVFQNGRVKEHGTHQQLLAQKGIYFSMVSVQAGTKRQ", "assay": "In vitro P-gp inhibition: 3H-digoxin permeation across control and MDR1-expressing LLC-PK1 cell monolayers", "method": "MDR1-expressing cells (porcine kidney epithelial LLC-PK1 cells transfected with human MDR1 cDNA) was used. The MDR1-expressing cells were seeded at a density of 4 × 10^4 cells/insert in plates and were incubated in a CO2 incubator (37 °C, CO2: 5%) for 7 to 9 days to prepare cell monolayers. […] After incubation for 4 h at 37 °C, a 70-μL aliquot of the incubation solutions was collected as the analytical sample from the opposite compartment of that spiked with test solutions (receiver compartment). The collected samples were immediately combined with 10 mL of scintillator, and the radioactivity was counted using the LSC. Permeability coefficient (Papp) of ^3H-digoxin was calculated using the following equation: Pappcm/sec=[dQ/dt]/A/C0 where dQ/dt is the transport rate (dpm/sec); A is the membrane area (cm^2); C0 is the initial concentration (dpm/mL). The ratio of permeability coefficient (Papp ratio) was calculated from the basal to apical Papp and apical to basal Papp according to the following equation: Pappratio=BasaltoapicalPapp/ApicaltobasalPapp\nFurthermore, the ratios of the Papp ratios in MDR1-expressing cells to the Papp ratios in control cells were calculated as corrected Papp ratio according to the following equation: CorrectedPappratio=PappratiooftheMDR1expressingcells/Pappratioofthecontrolcells\nThe % of control was calculated from the corrected Papp ratio according to the following equation: \\% \\,of\\,control=CorrectedPappratio\\,in\\,the\\,absence\\,or\\,presence\\,of\\,inhibitors/CorrectedPappratio\\,in\\,the\\,absence\\,of\\,inhibitors×100"}, "[14]": {"system": "CYP1A2", "conditions": "human, hepatocytes, 50 µmol/L", "procedure": "as §1, §2"}, "[15]": {"system": "P-gp", "assay": "P-gp mRNA induction in cultured human hepatocytes", "type": "cell-based", "conditions": "50 µmol/L"}, "[16]": {"system": "P-gp and CYP3A", "conditions": "rivaroxaban; cited from earlier work"}, "[17]": {"system": "CYP3A and P-gp", "design": "method as in PMID 33030266", "conditions": "assumed in model development, verified with clinical DDI studies; cited from earlier work"}, "[18]": {"conditions": "retrograde calculation from CLpo 0.60 L/h"}},
  "data": [
    {"smiles": "CNC(=O)c1ccc(N2C(=S)N(c3ccc(C#N)c(C(F)(F)F)c3)C(=O)C2(C)C)cc1F", "note": "[Enzalutamide]", "values": [
      {"measurement": "Log P", "setting": "[1]", "value": 2.98},
      {"measurement": "fu", "setting": "[2]", "value": 0.0244},
      {"measurement": "Ki", "setting": "[3]", "value": 42, "unit": "µM"},
      {"measurement": "AUC", "setting": "[4]", "value": 322, "unit": "µg·h/mL"},
      {"measurement": "AUC(0-inf)", "setting": "[4]", "value": 288, "unit": "µg·h/mL"},
      {"measurement": "Tmax", "setting": "[4]", "value": 0.75, "unit": "h"},
      {"measurement": "half-life", "setting": "[4]", "value": 77.7, "unit": "h"},
      {"measurement": "Cmax", "setting": "[4]; once-daily oral 160 mg enzalutamide for 49 days", "value": 16600, "unit": "ng/mL"},
      {"measurement": "Cmax", "setting": "[4]; single oral 160 mg enzalutamide", "value": 5660, "unit": "ng/mL"},
      {"measurement": "CYP3A4 CLint for M2 formation", "setting": "[5]; PBPK model parameter, see text", "value": 0.002312, "unit": "mL/min/pmol enzyme"},
      {"measurement": "Peff,man", "setting": "[5]; calculated from Caco-2 passive permeability calibrated to propranolol", "value": "5.15 10^–4 cm/s"},
      {"measurement": "Contribution of CYP2C8 on enzalutamide elimination", "setting": "[5]; estimated from clinical DDI study with gemfibrozil", "value": 87, "unit": "%"},
      {"measurement": "CYP2C8 CLint for M2 formation", "setting": "[5]; [18]", "value": 0.1518, "unit": "mL/min/pmol enzyme"},
      {"measurement": "CYP2C8 CLint for other pathway", "setting": "[5]; [18]", "value": 0.07475, "unit": "mL/min/pmol enzyme"},
      {"measurement": "CYP3A4 CLint for other pathway", "setting": "[5]; [18]", "value": 0.003617, "unit": "mL/min/pmol enzyme"},
      {"measurement": "Ki", "setting": "[6]", "value": 15.1, "unit": "µM"},
      {"measurement": "Indmax on CYP3A4, calibrated", "setting": "[7]", "value": 11.43},
      {"measurement": "Cmin, observed", "setting": "[8]", "value": 12000, "unit": "ng/mL"},
      {"measurement": "Ki", "setting": "[9]", "value": 42, "unit": "µM"},
      {"measurement": "Papp", "setting": "[10]", "value": 31, "unit": "×10⁻⁶ cm/s"},
      {"measurement": "Vss", "setting": "[11]; PBPK model parameter", "value": 0.967, "unit": "L/kg"},
      {"measurement": "Estimated bioavailability based on mass balance data", "setting": "[11]; oral", "value": "≥ 84", "unit": "%"},
      {"measurement": "EC50", "setting": "[12]", "value": 1.5, "unit": "µM"},
      {"measurement": "IC50", "setting": "[13]", "value": 1.67, "unit": "µM"},
      {"measurement": "Ki", "setting": "[13]", "value": 1.67, "unit": "µM"}
    ]},
    {"smiles": "COc1ccc2[nH]c([S+]([O-])Cc3ncc(C)c(OC)c3C)nc2c1", "note": "(centres unmarked) [Omeprazole, omeprazole, reference compound]", "values": [
      {"measurement": "Fold increase CYP1A2 mRNA", "setting": "[14]", "value": "46.4 ± 7.2", "unit": "fold"},
      {"measurement": "Fold increase P-gp mRNA", "setting": "[15]", "value": "2.38 ± 1.68", "unit": "fold"}
    ]},
    {"smiles": "O=C(NC[C@H]1CN(c2ccc(N3CCOCC3=O)cc2)C(=O)O1)c1ccc(Cl)s1", "note": "[Rivaroxaban, rivaroxaban]", "values": [
      {"measurement": "Decrease in AUC by rifampicin", "setting": "[16]", "value": 49, "unit": "%"},
      {"measurement": "Contribution of CYP3A to hepatic metabolism", "setting": "[17]", "value": 61, "unit": "%"}
    ]}
  ]
}
